The values below come from patent US11634466B2, “Musclin peptides and methods of use thereof” (UNIVERSITY OF IOWA RESEARCH FOUNDATION, priority 2016, dated 2023).

Common to all, as to assay type: cell-based
One assay deals with OPA1 mRNA. Nature of the assay: OPA1 mRNA normalized to HPRT by PCR in myotube culture. The conditions noted are these: n=3. As to the method: RNA isolation and quantitative reverse transcriptase polymerase chain reaction (qRT-PCR): Total RNA from mouse tissues and primary myocytes was isolated using RNeasy RNA Isolation Kit (Qiagen). A 1 μg primary myocyte or tissue RNA sample was used to synthesize cDNA in 50 μl reactions using Oligo(dT) as primer and SuperScript III Reverse Transcriptase (Invitrogen). Quantitative real-time PCR was performed on Mastercycler epgradient S (Eppendorf) using SYBR green based PCR reactions. For quantitative RT-PCR, 1 μl of reverse transcription reaction was mixed with 10 pmoles each specific primer and 12.5 μl SYBR PCR Master Mix (BioRad). The reaction was incubated for 40 cycles consisting of denaturation at 95° C. for 10 s and annealing/extension at 59.9° C.—for musclin, HPRT, Nrf2, 56° C.—for PGC1α, Tfam, Nrf1, for 1 min. The quality of the PCR product was routinely checked by a thermal denaturation curve following the qPCR reactions. The threshold cycle (CT) was determined by Realplex2 software (Eppendorf), and quantification of relative mRNA levels was performed by relative mRNA levels was performed by ΔΔCT method. […]

Assay [1] deals with Akt and FOXO1 phosphorylation in cultured murine primary myoblasts. Nature of the assay: Akt and FOXO1 phosphorylation by western blot in primary myoblasts with Ca2+ ionophore. The following applies: 1 μM ionophore, 1 mM Ca2+, n=4. As to the method:
Western blotting: Whole cell protein extracts were prepared by homogenizing skeletal muscle tissue in NaCl 150 mM, Tris-HCl 50 mM (pH 7.8), supplemented with 1.5% Triton X-100, protease and phosphatase inhibitors (Roche). Nuclear extracts were obtained using the Subcellular Protein Fractionation Kit for Tissues (Thermo Scientific).
Electrophoresis was performed on 3-8% gradient Nu-Page Tris-Acetate or 10% Nu-Page Bis-Tris gels and transferred to 0.2 μm Sequi-Blot PVDF membranes (Bio-Rad). The membranes were blotted with total AKT1 and phospho-AKT1([…], T308, Cell Signaling), FOXO1 (Cell Signaling), total OXPHOS (rodent, Abcam), musclin (custom rabbit IgG produced against partial mouse musclin sequence NH2-sfsgfgspldrlsagsvehrgkqrkavdhskkr-COOH (SEQ ID NO: 4), corresponding to amino acids 80-112, Gen Bank ID: AAS87598.1, Anaspec, Fremont, Calif.), and GAPDH (Santa Cruz Biotechnologies) antibodies. Densitometric analysis of western blots was performed using Adobe Photoshop (Adobe Systems, San Jose, Calif.).
(§1) Mouse primary myoblasts were isolated from gastrocnemius muscle of 4-6 weeks old mice. Fresh muscle tissue was digested with 2 mg/ml collagenase II in DMEM-F12 for 1.5 h at 37° C.; then 30 min at 37° C. with 1 mg/ml collagenase II and 0.5 mg/ml dispase in DMEM-F12. Tissue was ground and passed through a 100 μm then 70 μm cell strainer and spun at 1000 rpm for 10 min. Myoblasts were resuspended in DMEM-F12 supplemented with 20% FBS, 40 ng/ml bFGF, non-essential amino acids, 1 mM β-mercaptoethanol. Cells were plated on matrigel coated dishes. Cells were maintained in DMEM-F12 supplemented with 20% FBS, 10 ng/ml bFGF, non-essential amino acids, 1 mM β-mercaptoethanol until 80% confluent. Then they were differentiated in DMEM-F12 supplemented with 2% FBS and insulin-transferrin-selenium for 10 days. Human skeletal myoblast primary culture (lot #SLSK002, Zenbio, Research Triangle Park, NC) was maintained according to the supplier's manual.

Assay [2] deals with musclin mRNA in human cultured primary myoblasts. The experiment in a line: Musclin mRNA normalized to HPRT in human cultured primary myoblasts. The procedure:
(§2) RNA isolation and quantitative reverse transcriptase polymerase chain reaction (qRT-PCR): Total RNA from mouse tissues and primary myocytes was isolated using RNeasy RNA Isolation Kit (Qiagen). A 1 μg primary myocyte or tissue RNA sample was used to synthesize cDNA in 50 μl reactions using Oligo(dT) as primer and SuperScript III Reverse Transcriptase (Invitrogen). Quantitative real-time PCR was performed on Mastercycler epgradient S (Eppendorf) using SYBR green based PCR reactions. For quantitative RT-PCR, 1 μl of reverse transcription reaction was mixed with 10 pmoles each specific primer and 12.5 μl SYBR PCR Master Mix (BioRad). The reaction was incubated for 40 cycles consisting of denaturation at 95° C. for 10 s and annealing/extension at 59.9° C.—for musclin, HPRT, Nrf2, 56° C.—for PGC1α, Tfam, Nrf1, for 1 min. The quality of the PCR product was routinely checked by a thermal denaturation curve following the qPCR reactions. The threshold cycle (CT) was determined by Realplex2 software (Eppendorf), and quantification of relative mRNA levels was performed by ΔΔCT method. The primers used in this study are HPRT: HPRTF—GGACCTCTCGAAGTGTTGGATAC (SEQ ID NO: 16), HPRTR—GCTCATCTTAGGCTTTGTATTTGGCT (SEQ ID NO: 17); musclin: MuscF-TGTGGACTTAGCATCACAGG (SEQ ID NO: 18), MuscR-AGC TGA GAG TCT GTC AAG G (SEQ ID NO: 19); PGC1α: PGC1aF-TGATGTGAATGACTTGGATACAGACA (SEQ ID NO: 20), PGC1αR-GCTCATTGTTGTACTGGTTGGATATG (SEQ ID NO: 21); TfamF—GGAATGTGGAGCGTGCTAAAA (SEQ ID NO: 22), TfamR—TGCTGGAAAAACACTTCGGAATA (SEQ ID NO: 23); Nrf1F—CGC AGC ACC TTT GGA GAA (SEQ ID NO: 24, Nrf1R—CCCGACCTGTGGAATACTTG (SEQ ID NO: 25); Nrf2F—CAG CTC AAG GGC ACA GTG C (SEQ ID NO: 26), Nrf2R—GTG GCC CAA GTC TTG CTC C (SEQ ID NO: 27).
as §1

Assay [3] relates to musclin mRNA in murine cultured primary myoblasts. The experiment in a line: Musclin mRNA normalized to HPRT in murine cultured primary myoblasts. As to the method:
as §2, §1

Assay [4] relates to cGMP production in murine primary myoblasts. The experiment in a line: cGMP production in skeletal myoblast culture exposed to ANP and musclin. The following applies: n=3. The procedure: Cyclic GMP levels were measured using cyclicGMP EIA kit (Cayman Chemical Company, Ann Arbor, Mich.). Mice were exercised for 5 days, 12 m/min, 45 min before tissue collection. At the day of the experiment mice were exercised 12 m/min, 20 min, sedated with isoflurane and gastrocnemius muscle tissue was collected. Cyclic nucleotides were extracted using 5% trichloracetic acid. Samples were acetylated and used for cGMP level measurements according to the manufacturer's protocol.
as §1

[5] abbreviates: 0.5 μM ionophore, 1.0 mM Ca2+, n=3.
[6] abbreviates: 1 μM ionophore, 1.0 mM Ca2+, n=3.

With `Nc1nc2c(nc(Br)n2[C@@H]2O[C@@H]3COP(=O)(O)O[C@H]3[C@H]2O)c(=O)[nH]1` [8-Br-cGMP], the “OPA1 mRNA normalized to HPRT” value in the assay with OPA1 mRNA (8-Br-cGMP) came to 5.61±0.36.
Take `CNc1ccc2oc(C[C@H]3O[C@@]4(CC[C@H]3C)O[C@H]([C@H](C)C(=O)c3ccc[nH]3)[C@H](C)C[C@H]4C)nc2c1C(=O)O` [A23187]: in assay [1], the p-Akt/GAPDH is 0.91±0.05. The “pAkt/total Akt” value in assay [1] was determined as 0.66±0.03. In assay [1], this compound registered a pFOXO1/GAPDH of 0.39±0.04. In addition, the “pFOXO1/total FOXO1” value in assay [1] stood at 0.27±0.03. The “musclin mRNA” value in assay [2] (setting [5]) is listed as 3.02±0.23 AU; in assay [2] (0.5 μM ionophore, Ca2+-free buffer, n=3, p=NS) it was 0.74±0.18 AU; in assay [2] (setting [6]), 3.95±0.83 AU; in assay [2] (1 μM ionophore, Ca2+-free buffer, n=3, p=NS), 0.79±0.18 AU; in assay [3] (setting [5]) it was 2.20±0.06 AU; in assay [3] (setting [6]) it was 3.60±0.81 AU. Further, the “musclin mRNA” value in assay [3] (ionophore with removal of extracellular Ca2+ from the medium, n=3, p=NS vs. control) turned out to be 0.96±0.012 AU.
Regarding `CC[C@H](C)[C@@H]1NC(=O)[C@H](CCCNC(=N)N)NC(=O)[C@H](CC(=O)O)NC(=O)[C@H](CCSC)NC(=O)[C@H](CCCNC(=N)N)NC(=O)CNC(=O)CNC(=O)[C@H](Cc2ccccc2)NC(=O)[C@@H](NC(=O)[C@H](CO)NC(=O)[C@H](CO)NC(=O)[C@H](CCCNC(=N)N)NC(=O)[C@H](CCCNC(=N)N)NC(=O)[C@H](CC(C)C)NC(=O)[C@@H](N)CO)CSSC[C@@H](C(=O)N[C@@H](CC(N)=O)C(=O)N[C@@H](CO)C(=O)N[C@@H](Cc2ccccc2)C(=O)N[C@@H](CCCNC(=N)N)C(=O)N[C@@H](Cc2ccc(O)cc2)C(=O)O)NC(=O)CNC(=O)[C@H](CC(C)C)NC(=O)CNC(=O)[C@H](CO)NC(=O)[C@H](CCC(N)=O)NC(=O)[C@H](C)NC(=O)CNC1=O` [ANP, atrial natriuretic peptide, reference compound], the cGMP production in assay [4] (1 μM ANP) is given as 3.491±0.057 fmol/μg protein; in assay [4] (5 μM ANP), 6.046±0.074 fmol/μg protein. The “OPA1 mRNA normalized to HPRT” value in the assay on OPA1 mRNA (ANP 5 μM) amounted to 4.21±0.24.
For the compound `O=c1[nH]c2ccccc2n1C1CCN(Cc2ccc(-c3nc4cc5[nH]cnc5cc4nc3-c3ccccc3)cc2)CC1` [Akt inhibitor-viii], in assay [3] (myoblasts pre-treated with Akt inhibitor-viii before Ca2+ ionophore, n=3, p=NS vs. control), the “musclin mRNA” value amounted to 1.09±0.03 AU.
